# Experimental data published in US8653132B2, “Phosphaplatins and their use in pharmaceutical compositions” (Ohio University, priority 2007, dated 2014).
# Read-outs that look alike come from different tables or passages of the source.
# Experiments:
# [1] = system: A2780 human ovarian cancer cells; test: Clonogenic assay, A2780; format: cell-based; conditions: 1 hour drug treatment, 1 week colony formation, read-out: IC50 A780
# Method: Human ovarian cancer cells, A2780, were obtained from Dr. Thomas Hamilton (Fox Chase Cancer Center, Philadelphia, Pa.). Cells were cultured on monolayer using RPMI 1640 supplemented with 10% fetal bovine serum, 2 mM glutamine, 0.25 units/mL insulin and penicillin/streptomycin in a 37 degrees C. incubator continuously gassed with 5% CO2. Cells were subcultured using 0.0625% trypsin in HBSS to maintain cells in exponential growth.
# IC50 values were determined using a clonogenic assay. Briefly, 500 A2780 cells from a single cell suspension were plated onto 60mm Petri plates 24 hours before drug treatment to permit cell attachment. On the day of drug treatment, the medium was decanted and replaced with the drug and these treated cells were placed back into the 37 degrees C. incubator for 1 hour. Triplicate plates were set up for each drug concentration. After the 1 hour drug treatment, the drug containing medium was decanted and replaced with fresh medium. These plates were returned to the 37 degrees C. incubator for 1 week for colony formation. Colonies were fixed and stained using 2% crystal violet in absolute methanol. Colonies containing more than 50 cells were scored. The number of scored colonies from the triplicate plates was averaged and this number was divided by the number of cells plated to obtain a value for the fraction of cells forming colonies. These values for fraction of cells forming colonies were then corrected for plating efficiency by dividing it by the number of cells forming colonies in plates that were not treated with drug.
# [2] = system: UMSCC10b (Cisplatin-sensitive) cells; test: Cytotoxicity in head and neck cancer cells, cisplatin-sensitive; format: cell-based, human
# Method: The UMSCC10b (Cisplatin-sensitive) and UMSCC10b/15s (Cisplatin-resistant) cell lines derived from human head and neck squamous cell cancer were lines were obtained from Dr. Stephen B. Howell of the University of California, Dan Diego. Cells were cultured in 1640 RPMI with 10% fetal bovine serum, 100 units/ml penicillin and 100 μg/m1 of streptomycin. Cells were seeded into 24-well plates with approximately 20,000 cells/500 μl of media in each well plate. Cells were exposed to dach-2 with variable concentrations ranging from 1.12 μM to maximum of 72 μM. Stock solutions of dach-2 complex were prepared and aliquots of these solutions were added to make those effective concentrations. Cells were then allowed to grow for 72 hours. Twelve different concentrations were used in this study. Each concentration had one control for a total of 12 controls.
# DNA of A2780 cells = test: DNA-bound platinum in cells by atomic absorption; format: cell-based, human; conditions: up to 50 micromolar, treated up to 24 hours
# Method: For DNA-Pt measurements, 1.0×10^7 cells were seeded in T75 cm^2 flasks. After 24 hr, the platinum complexes were added at the different concentrations 0, 10, 20, 30 and 50 μM. Cells were treated with the platinum complexes for 24 hours. Following treatment, the medium was removed and cells were washed with ice-cold PBS. The cells were trypsinized and centrifuged into a pellet. DNA was extracted using a Wizard® SV DNA purification kit (Promega). The DNA was quantitatively estimated from the absorption at 260 nm using a NanoDrop UV-Vis instrument.
# guanine base = test: Guanine base binding by proton NMR; conditions: cisplatin after 48 hours, am-2 96 hours, dach-2 106 hours
# Method: FIG. 12 is a comparison of guanine base binding (the predominant DNA binding site of cisplatin) among cisplatin (bottom), am-2 (middle), and dach-2 (top) by proton NMR spectroscopy. […] The bottom spectrum was recorded after 48 hours. The middle and top spectra were recorded after 96 and 106 hours, respectively.
# (§1) Proton NMR spectroscopic experiments were conducted on a Bruker 500 MHz NMR instrument in 99% (atom) D2O with a water suppression pulse sequence. Samples contained cisplatin (2.0 mM) or pyrodach-2 (2.0 mM) and nucleotides (5′-dGMP, 5′-dAMP, dGpG (5.0 mM)), and, single- and double stranded DNA (calf thymus, 5.0 mM) at pH 7.0 maintained by phosphate and carbonate buffers (10-20 mM). Reactions of cisplatin (0.25 mM) and pyrodach-2 (0.25 mM) with a synthetic 25-mer: 5′-[…]-3′ (SEQ ID NO: 1) (0.25 mM) were also performed under identical conditions. Reactions were carried out up to 7 days, and ^1H and ^31P NMR spectra were recorded at regular time intervals. Usually, a pulse width of 5 μs with a 1.0 s repetition delay was used for the measurements. Typically, a sweepwidth of 10,000 Hz and 32 K data points were selected to collect the Free Induction Decays. A line broadening factor of 1 Hz was for applied Fourier transformation. The chemical shifts, with reference to H—O-D peak, are at 4.67 ppm.
# [3] = system: synthetic 25-mer oligonucleotide (SEQ ID NO:1); test: Platinum-DNA binding by NMR, 25-mer oligonucleotide; conditions: 1H NMR, identical conditions for both complexes
# Method: (§2) In the associated experiment, dach-2 was allowed to react with double-stranded calf-thymus DNA, a synthetic oligonucleotide (5′-[…]-3′; SEQ ID NO:1), a dinucleotide (dGpG), and nucleotide monophosphates (5′-dGMP and 5′-dAMP) at concentrations as much as 250-times higher than those of cellular doses. The extent of DNA binding was monitored by ^1H NMR spectroscopy. In parallel, similar reactions with cisplatin were conducted under identical conditions.
# as §1, with “The chemical shifts, with reference to H—O-D peak, are at 4.67 ppm.” left out
# [4] = system: calf-thymus DNA, oligonucleotide, dGpG, 5'-dGMP and 5'-dAMP; test: Platinum binding to DNA and nucleotides by NMR; conditions: 1H NMR, up to seven days
# Method: as §2
# as §1, with “The chemical shifts, with reference to H—O-D peak, are at 4.67 ppm.” left out
# fas = test: Apoptotic gene array, real-time PCR: fas; format: cell-based; conditions: preliminary
# Method: (§3) Preliminary gene expression experiments involving complexes of the present invention as compared to cisplatin (data not shown) were carried out with an apoptotic array containing 84 genes that includes the BCL2 superfamily, both pro- and anti-apoptotic, caspases, the BIR-family, TNF receptor […] factors, p53 and its congeners, and fas associated members by real-time PCR. A closer look at the two sets of gene expressions clearly indicates a number of differences in the expression patterns. […] Specifically, fas was over-expressed by 6-fold compared to the control, and TNFRS genes such as TNFRSF-10B was overexpressed by 2-3 folds over controls. These latter receptor factors belong to the fas superfamily.
# TNFRSF-10B = test: Apoptotic gene array, real-time PCR: TNFRSF-10B; format: cell-based; conditions: preliminary
# Method: as §3
# BAK1 = test: Apoptotic gene array, real-time PCR: BAK1; format: cell-based; conditions: preliminary
# Method: as §3
# BAX = test: Apoptotic gene array, real-time PCR: BAX; format: cell-based; conditions: preliminary
# Method: as §3
structure (smiles),measurement,setting,value
"NC1CCCCC1N.O=P([O-])(O)OP(=O)([O-])O.[Pt+2] [dach-2, (Trans-1,2-cyclohexanediamine)(dihydrogenpyrophosphato)platinum(II)]",IC50,[1],20 ± 4 µM
same,IC50,"[2]; 72 hours growth, estimated, read-out: IC50 for UMSCC10b (Cisplatin-sensitive)",< 1 µM
same,IC50,"[2]; FIG. 9 legend, read-out: IC50 cisplatin-sensitive head and neck cancer cells",< 1 µM
same,DNA-bound platinum,DNA of A2780 cells,No DNA-bound platinum was detected
same,guanine base binding (H8 signal),guanine base,exhibits a signal for the free guanine base at 8.05 ppm
same,"DNA binding, 25-mer oligonucleotide",[3],does not exhibit any measurable DNA binding
same,adduct formation with nucleotides,[4],no detectable NMR signals
same,fas over-expression compared to the control,fas,6 fold
same,TNFRSF-10B overexpression over controls,TNFRSF-10B,2-3 folds
same,BAK1 overexpression,BAK1,2-3 folds
same,BAX overexpression,BAX,2-3 folds
